The source of these data is patent US11390631B1, “Benzodiazepine derivatives as RSV inhibitors” (priority 2015, dated 2022).

pEC50: −log10 of the molar value. A value given as a limit tells only on which side of the number the result lay.

For this assay, the system named is Human RSV-A (“Long” strain). Description: RSV-A assay: inhibition of cytopathic effect in Hep-2 cells, ATPlite readout. It is filed as cell-based, Human respiratory syncytial virus (HRSV). The settings on record: human respiratory syncytial virus, HEp-2, 120 h, read-out: Human RSV-A (“Long” strain) EC50. From the text: Hep-2 cells, (originally derived from tumors grown in irradiated-cortisonised weanling rats that had been injected with epidermoid carcinoma tissue from a person's larynx, but later found to be indistinguishable from HeLa cells by PCR DNA analysis), were used for the culturing of genotype A, “Long” strain RSV. Flasks were inoculated with RSV and viral stocks were collected once cytopathic effect (CPE) was greater than 90%. Viral stocks in 25% sucrose media were snap frozen using liquid nitrogen to increase viral stability. Viral stock titers were quantified by tissue culture infectious dose 50% (TCID50) using 8,000 cells per well and 3-fold viral dilutions across a 96-well plate, cultured for 4 days. Viral stock titers were also quantified by a plaque forming unit assay, as described elsewhere.
Following extensive parameter testing, the final assay is run as follows: Hep-2 cells are seeded into the inner 60 wells of a 96-well plate at 8,000 cells per well in a volume of 50 μL using Growth Media (DMEM without phenol red, 1% L-Glut, 1% Penn/Strep, 1% nonessential amino acids, 10% heat-inactivated FBS). 2-fold serial dilutions of control and test compounds are added to the wells in duplicate in a total volume of 25 μL. Viral stock is then added to the wells at a multiplicity of infection (MOI) of 0.1 in a volume of 25 μL, bringing the total volume of each well to 100 μL. The MOI is calculated using the PFU/mL, or TCID50 if unavailable. Each 96-well plate has a control column of 6 wells with cells and virus but no compound (negative control, max CPE), a column with cells but no compound or virus (positive control, minimum CPE), and a column with no cells or virus or compound (background plate/reagent control). The control wells with cells but no virus are given an additional 25 uL of growth media containing an equal quantity of sucrose as those wells receiving the viral stock in order to keep consistent in media and volume conditions. The outer wells of the plate are filled with 125 μL of moat media (DMEM, 1% Penn/Strep) to act as a thermal and evaporative moat around the test wells. Following a 5-day incubation period, the plates are read using ATPlite (50 uL added per well), which quantifies the amount of ATP (a measure of cell health) present in each well. Assay plates are read using the Envision luminometer. In parallel, cytotoxicity is examined on an additional 96-well plate treated in an identical manner, but substituting the 25 μL of viral stock for 25 μL of growth media. […] EC50 ranges are as follows: A<0.4 μM; B 0.4-0.8 μM; C>0.8 μM and CC50 ranges are as follows: A>50 μM; B 10-50 μM; C<10 μM.
For orientation: Damage to the host cells serves as the signal in cytopathic effect assays.

Regarding `O=C1Nc2ccccc2C(c2ccccc2)=N[C@@H]1Nc1nnc(-c2cnc(N3CCOCC3)cn2)o1` [Example 161], the pEC50 (usually −log10 of the EC50, conventionally taken in molar units) was below 6.10.

For the compound `O=C1Nc2ccccc2C(c2ccccc2)=N[C@@H]1Nc1nnc(-c2cnc(C(F)(F)F)nc2N2CCOCC2)o1` [Example 162], the pEC50 is above 6.40.

Turning to `O=C1Nc2ccccc2C(c2ccccc2)=N[C@@H]1Nc1nnc(-c2nc3ccccn3c2N2CCOCC2)o1` [Example 163], the pEC50 was below 6.10. The figure for `Cn1cc(N2CCOCC2)c(-c2nnc(N[C@H]3N=C(c4ccccc4)c4ccccc4NC3=O)o2)n1` [Example 164] is above 6.40; for `O=C1Nc2ccccc2C(c2ccccc2)=N[C@@H]1Nc1nnc(-c2cnc(N3CCOCC3)nc2)o1` [Example 165] it is 6.10 to 6.40. On to `O=C1Nc2ccccc2C(c2ccccc2)=N[C@@H]1Nc1nnc(-c2cnc(N3CC4CCC(C3)O4)nc2)o1` [Example 166], for which the pEC50 was below 6.10. With `O=C1Nc2ccccc2C(c2ccccc2)=N[C@@H]1Nc1nnc(-c2cnc(C3CC3)nc2N2CCOCC2)o1` [Example 167], the pEC50 is above 6.40. With `O=C1Nc2ccccc2C(c2ccccc2)=N[C@@H]1Nc1nnc(-c2cnc(-n3cccn3)nc2N2CCOCC2)o1` [Example 172], the pEC50 is below 6.10. Turning to `O=C1Nc2ccccc2C(c2ccccc2)=N[C@@H]1Nc1nnc(-c2cnc(-n3cncn3)nc2N2CCOCC2)o1` [Example 173], the negative-log EC50 (pEC50) is below 6.10. Regarding `N#Cc1cnc(N2CCOCC2)c(-c2nnc(N[C@H]3N=C(c4ccccc4)c4ccccc4NC3=O)o2)c1` [Example 174], the pEC50 was above 6.40. For `CCc1nc(N2CCOCC2)c(-c2nnc(N[C@H]3N=C(c4ccccc4)c4ccccc4NC3=O)o2)cc1C#N` [Example 176], the pEC50 is above 6.40. `Cn1ncc(-c2nnc(N[C@H]3N=C(c4ccccc4)c4ccccc4NC3=O)o2)c1N1CCOCC1` [Example 177]: the negative-log EC50 (pEC50) was below 6.10. In the case of `Cn1ncc(N2CCOCC2)c1-c1nnc(N[C@H]2N=C(c3ccccc3)c3ccccc3NC2=O)o1` [Example 178], the pEC50 was 6.10 to 6.40. Turning to `O=C1Nc2ccccc2C(c2ccccc2)=N[C@@H]1Nc1nnc(-c2sc3ncccc3c2N2CCOCC2)o1` [Example 180], the pEC50 was above 6.40.

`Cn1cc(-c2nnc(N[C@H]3N=C(c4ccccc4)c4ccccc4NC3=O)o2)c(N2CCOCC2)n1` [Example 181]: the pEC50 is above 6.40. On to `O=C1Nc2ccccc2C(c2ccccc2)=N[C@@H]1Nc1nnc(-c2sc(Br)cc2N2CCOCC2)o1` [Example 182], for which the pEC50 was above 6.40. As to `N#Cc1ccc(-c2nnc(NC3N=C(c4ccccc4)c4ccccc4NC3=O)o2)s1` (centres unmarked) [Example 183], the pEC50 is above 6.40. For `O=C1Nc2ccccc2C(c2ccccc2)=NC1Nc1nnc(-c2ccc(N3CCCC3)cc2)o1` (centres unmarked) [Example 184], the negative-log EC50 (pEC50) was 6.10 to 6.40.

Turning to `COc1cnc(-c2nnc(NC3N=C(c4ccccc4)c4ccccc4NC3=O)o2)c(F)c1` (centres unmarked) [Example 185], the pEC50 was below 6.10.

As to `Cn1nnc(-c2ccc(-c3nnc(NC4N=C(c5ccccc5)c5ccccc5NC4=O)o3)cc2)n1` (centres unmarked) [Example 186], the negative logarithm of the EC50 (pEC50) was below 6.10. In the case of `Cc1nc2ccc(-c3nnc(NC4N=C(c5ccccc5)c5ccccc5NC4=O)o3)cc2s1` (centres unmarked) [Example 187], the pEC50 is 6.10 to 6.40. To `CC(C)c1nnc(NC2N=C(c3ccccc3)c3ccccc3NC2=O)o1` (centres unmarked) [Example 188] belongs below 6.10.

With `CC(C)(C)c1nnc(NC2N=C(c3ccccc3)c3ccccc3NC2=O)o1` (centres unmarked) [Example 189], the pEC50 is below 6.10. Consider `CCCc1nnc(NC2N=C(c3ccccc3)c3ccccc3NC2=O)o1` (centres unmarked) [Example 190], for which the pEC50 is below 6.10. Take `COCc1nnc(NC2N=C(c3ccccc3)c3ccccc3NC2=O)o1` (centres unmarked) [Example 191]: the pEC50 is below 6.10. On to `O=C1Nc2ccccc2C(c2ccccc2)=NC1Nc1nnc(CCC(F)(F)F)o1` (centres unmarked) [Example 192], for which the pEC50 was below 6.10. With `N#CCCc1nnc(NC2N=C(c3ccccc3)c3ccccc3NC2=O)o1` (centres unmarked) [Example 193], the pEC50 was below 6.10. Take `CS(=O)(=O)Cc1nnc(NC2N=C(c3ccccc3)c3ccccc3NC2=O)o1` (centres unmarked) [Example 194]: the pEC50 is below 6.10. With `CC1(c2nnc(NC3N=C(c4ccccc4)c4ccccc4NC3=O)o2)CC1` (centres unmarked) [Example 195], the pEC50 is below 6.10. For `O=C1Nc2ccccc2C(c2ccccc2)=NC1Nc1nnc(C2CCC2)o1` (centres unmarked) [Example 196], the negative logarithm of the EC50 (pEC50) is below 6.10. In the case of `O=C1Nc2ccccc2C(c2ccccc2)=NC1Nc1nnc(C2CCCC2)o1` (centres unmarked) [Example 197], the negative logarithm of the EC50 (pEC50) is below 6.10. Regarding `O=C1Nc2ccccc2C(c2ccccc2)=NC1Nc1nnc([C@H]2CCCO2)o1` (some centres unmarked) [Example 198], the pEC50 was below 6.10. On to `O=C1Nc2ccccc2C(c2ccccc2)=NC1Nc1nnc(CCc2ccccc2)o1` (centres unmarked) [Example 199], for which the pEC50 was below 6.10.

Turning to `Cc1nc(-c2nnc(NC3N=C(c4ccccc4)c4ccccc4NC3=O)o2)ccc1C#N` (centres unmarked) [Example 200], the pEC50 was 6.10 to 6.40. Regarding `CN1C(=O)C(Nc2nnc(-c3ccc(F)cc3)o2)N=C(c2ccccc2)c2ccccc21` (centres unmarked) [Example 201], the pEC50 was below 6.10.

For `O=C1Nc2ccccc2C(c2ccccc2)=NC1Nc1nnc(-c2ccc(-n3ccc(C(F)(F)F)n3)cc2)o1` (centres unmarked) [Example 202], the pEC50 was below 6.10. Regarding `O=C1Nc2ccccc2C(c2ccccc2)=NC1Nc1nnc(CC(F)(F)F)o1` (centres unmarked) [Example 203], the pEC50 was below 6.10. The figure for `CC1(C)C[C@@H]1c1nnc(NC2N=C(c3ccccc3)c3ccccc3NC2=O)o1` (some centres unmarked) [Example 205] is below 6.10.

`CC1(C)CC(c2nnc(NC3N=C(c4ccccc4)c4ccccc4NC3=O)o2)C1` (centres unmarked) [Example 206]: the pEC50 was below 6.10. `O=C1Nc2ccccc2C(c2ccccc2)=NC1Nc1nnc([C@@H]2CCCO2)o1` (some centres unmarked) [Example 207]: the pEC50 was below 6.10. As to `CC(C)(Cc1ccccc1)c1nnc(NC2N=C(c3ccccc3)c3ccccc3NC2=O)o1` (centres unmarked) [Example 208], the pEC50 is below 6.10.

Take `CN(c1nnc(-c2ccc(F)cc2)o1)C1N=C(c2ccccc2)c2ccccc2NC1=O` (centres unmarked) [Example 209]: the pEC50 is below 6.10.

For the compound `CN1CCN(c2ccc(-c3nnc(NC4N=C(c5ccccc5)c5ccccc5NC4=O)o3)cc2)CC1` (centres unmarked) [Example 210], the negative logarithm of the EC50 (pEC50) was below 6.10.

Consider `O=C1Nc2ccccc2C(c2ccccc2)=NC1Nc1nnc(-c2ccc(-n3cccn3)nc2)o1` (centres unmarked) [Example 211], for which the pEC50 is below 6.10. Take `O=C1Nc2ccccc2C(c2ccccc2)=NC1Nc1nnc(-c2cccc(-n3ccnc3)c2)o1` (centres unmarked) [Example 212]: the pEC50 is below 6.10. For `CC(C)(O)c1nnc(NC2N=C(c3ccccc3)c3ccccc3NC2=O)o1` (centres unmarked) [Example 213], the pEC50 was below 6.10. Turning to `O=C1Nc2ccccc2C(c2ccccc2)=NC1Nc1nnc(C2CC(F)(F)C2)o1` (centres unmarked) [Example 214], the pEC50 was below 6.10. To `O=C1Nc2ccccc2C(c2ccccc2)=NC1Nc1nnc(C2CCOC2)o1` (centres unmarked) [Example 215] belongs below 6.10; to `O=C1Nc2ccccc2C(c2ccccc2)=NC1Nc1nnc(-c2ccc(-n3cncn3)c(F)c2)o1` (centres unmarked) [Example 216], 6.10 to 6.40. With `Cc1cc(-c2nnc(NC3N=C(c4ccccc4)c4ccccc4NC3=O)o2)ccc1-n1cncn1` (centres unmarked) [Example 217], the negative logarithm of the EC50 (pEC50) was 6.10 to 6.40. The figure for `Cc1cc(-n2cncn2)ccc1-c1nnc(NC2N=C(c3ccccc3)c3ccccc3NC2=O)o1` (centres unmarked) [Example 218] is below 6.10. To `COc1cc(-c2nnc(NC3N=C(c4ccccc4)c4ccccc4NC3=O)o2)ccc1-n1cnc(C)c1` (centres unmarked) [Example 219] belongs below 6.10; to `O=C1Nc2ccccc2C(c2ccccc2)=NC1Nc1nnc(-c2ccc(OC3CCOCC3)cc2)o1` (centres unmarked) [Example 220], below 6.10; to `O=C1Nc2ccccc2C(c2ccccc2)=NC1Nc1nnc(C2CCNC2)o1` (centres unmarked) [Example 221], below 6.10. To `O=C1Nc2ccccc2C(c2ccccc2)=NC1Nc1nnc(C2CC3(CCNCC3)C2)o1` (centres unmarked) [Example 222] belongs below 6.10; to `CC1(c2nnc(NC3N=C(c4ccccc4)c4ccccc4NC3=O)o2)CCNC1` (centres unmarked) [Example 223], below 6.10. Regarding `O=C1Nc2ccccc2C(c2ccccc2)=NC1Nc1nnc(-c2ccc(-n3cncn3)nc2)o1` (centres unmarked) [Example 225], the pEC50 was below 6.10. To `O=C1Nc2ccccc2C(c2ccccc2)=NC1Nc1nnc(-c2ccccc2-c2ccncc2)o1` (centres unmarked) [Example 226] belongs below 6.10. Take `O=C1Nc2ccccc2C(c2ccccc2)=NC1Nc1nnc([C@@H]2CCCN2C2CCNCC2)o1` (some centres unmarked) [Example 227]: the pEC50 is below 6.10.
